Experimental data: PMC7232190, “FDA-Approved Drugs Efavirenz, Tipranavir, and Dasabuvir Inhibit Replication of Multiple Flaviviruses in Vero Cells” (Microorganisms, 2020)

How the values were obtained:
ZIKV (strain MR-766) [1] = test: Inhibition of ZIKV-mediated cytopathic effect in a simultaneous treatment assay, Vero cells; conditions: 50 µM, 48 h
WNV (Eg101) = test: microbe, parasite or virus in culture; assay type: cell-based, West Nile virus; conditions: Vero cells; for EC50: pretreatment 24 h, 48 h incubation, plaque assay
[2] = system: flaviviral surface E antigen (all VBFs tested); test: Immunofluorescence staining of viral antigen in infected Vero cells; assay type: cell-based; conditions: 48 h p.i., 0, 40, 50 µM dasabuvir or efavirenz, 0, 75, 100 µM tipranavir
Protocol: The results obtained from antiviral assays were confirmed using a cell-based flavivirus immunostaining assay with a mouse monoclonal antibody that specifically recognizes the flavivirus group surface antigen, as described previously. Briefly, Vero cells seeded onto 96-well plates were treated with the test compound (0, 40, or 50 μM dasabuvir or efavirenz; 0, 75, or 100 μM tipranavir) and infected with the individual viruses at a multiplicity of infection of 0.1. After incubation at 37 °C for 48 h, the cell monolayers were fixed with cold acetone-methanol (1:1), blocked with 10% fetal bovine serum, and incubated with the flavivirus antibody (1:250; Sigma-Aldrich, Prague, Czech Republic). After washing, the cells were labeled with an anti-mouse goat secondary antibody conjugated with fluorescein isothiocyanate (FITC; 1:500) and counterstained with DAPI (4′,6-diamidino-2-phenylindole; 1 μg/mL) to allow visualization of the cell nuclei. The fluorescence signal was recorded with an Olympus IX71 epifluorescence microscope and processed by ImageJ software.

ZIKV (Paraiba_01) [3] = test: Anti-ZIKV activity in human neural cells, pretreatment assay, HBCA cells; assay type: cell-based, Zika virus; conditions: 48 h
HIV = system: HIV; set-up: method as in PMID 21041916, PMID 18158073; conditions: H9 cells; read-out: EC90 (anti-HIV activity); cited from earlier work
ZIKV (Paraiba_01) [4] = test: Anti-ZIKV activity in human neural cells, pretreatment assay, UKF-NB-4 cells; assay type: cell-based, Zika virus; conditions: 48 h
WNV (13-104) = test: microbe, parasite or virus in culture; assay type: cell-based, West Nile virus; conditions: Vero cells; for EC50: West Nile virus, pretreatment 24 h, 48 h incubation, plaque assay
ZIKV (strain MR-766) [5] = test: Anti-ZIKV activity in a simultaneous treatment assay, plaque assay, Vero cells; assay type: cell-based, Zika virus; conditions: 50 µM, 48 h
ZIKV (MR-766) = test: microbe, parasite or virus in culture; assay type: cell-based, Zika virus; conditions: Vero cells; for EC50: Zika virus, pretreatment 24 h, 48 h incubation, plaque assay
[6] = Cytotoxicity assay (Cell Counting Kit-8); assay type: cell-based; conditions: African green monkey; Vero cells, 72 h treatment, 0-100 µM
Protocol: (§1) For detailed cytotoxicity studies, Vero, HBCA, and UKF-NB-4 cells were seeded onto 96-well plates at a density of 10,000 cells per well and incubated for 24 h at 37 °C before being used in the experiment to form a confluent monolayer. After the incubation, tested compounds were added to the cells at concentrations of 0, 3.125, 6.25, 12.5, 25, 50, 75, and 100 µM, and treated under the same regime as during antiviral testing; i.e., pretreatment for 24 h with culture medium containing appropriate drug concentrations, then the medium was exchanged with fresh compound-containing medium. […] The 50% cytotoxic concentration (CC50) values, representing the concentration of compound that reduced cell viability by 50%, were calculated using GraphPad Prism (version 7.04, GraphPad Software, San Diego, CA, USA) as a nonlinear regression (inhibitor vs. normalized response, variable slope).

[7] = Cytotoxicity assay (Cell Counting Kit-8); assay type: cell-based, Human; conditions: human, 72 h treatment, 0-100 µM
Protocol: as §1

HBCA cells = test: Cytotoxicity assay (Cell Counting Kit-8); assay type: cell-based, Human
Protocol: as §1

UKF-NB-4 cells = test: Cytotoxicity assay (Cell Counting Kit-8); assay type: cell-based, Human
Protocol: as §1

ZIKV (Paraiba_01) [8] = test: microbe, parasite or virus in culture; assay type: cell-based, Zika virus; conditions: Vero cells; for EC50: Zika virus, pretreatment 24 h, 48 h incubation, plaque assay
ZIKV (strain MR-766) [9] = test: Anti-ZIKV activity in a post-treatment assay, plaque assay, Vero cells; assay type: cell-based, Zika virus; conditions: 50 µM, 48 h
TBEV (Hypr) = test: microbe, parasite or virus in culture; assay type: cell-based, tick-borne encephalitis virus; conditions: for EC50: Tick-borne encephalitis virus, Vero
HCV genotype 1b replicon = system: HCV genotype 1b replicon; set-up: method as in PMID 25534735; conditions: HCV subgenomic replicon; cited from earlier work
HCV genotype 1a replicon = system: HCV genotype 1a replicon; set-up: method as in PMID 25534735; conditions: HCV subgenomic replicon; cited from earlier work

| SMILES | viability of the infected cells compared to uninfected controls (inhibition of ZIKV-mediated CPE) (ZIKV (strain MR-766) [1]) | Selectivity Index (SI) (CC50/EC50) (WNV (Eg101)) | EC50 (WNV (Eg101); West Nile virus, Vero) | surface E antigen expression by all VBFs tested [2] | Selectivity Index (SI) (CC50/EC50) (WNV (13-104)) | EC50 (WNV (13-104)) | effect on ZIKV titer in the culture (ZIKV (strain MR-766) [5]) | Selectivity Index (SI) (CC50/EC50) (ZIKV (MR-766)) | EC50 (ZIKV (MR-766)) | CC50 at 72 h [6] | CC50 at 72 h ([7]; HBCA cells) | CC50 at 72 h ([7]; UKF-NB-4 cells) | highest non-toxic (>90% viability of the treated cells) concentration (HBCA cells) | highest non-toxic (>90% viability of the treated cells) concentration (UKF-NB-4 cells) | EC50 (ZIKV (Paraiba_01) [8]) | anti-ZIKV effect, drug applied 2 h post-infection (ZIKV (strain MR-766) [9]) | Selectivity Index (SI) (CC50/EC50) (TBEV (Hypr)) | EC50 (TBEV (Hypr)) | Selectivity Index (SI) (CC50/EC50) (ZIKV (Paraiba_01) [8]) | further results |
| --- | --- | --- | --- | --- | --- | --- | --- | --- | --- | --- | --- | --- | --- | --- | --- | --- | --- | --- | --- | --- |
| C[C@@H]1CCO[C@H]2Cn3cc(C(=O)NCc4ccc(F)cc4F)c(=O)c(O)c3C(=O)N12 [dolutegravir] | > 90% |  |  |  |  |  |  |  |  |  |  |  |  |  |  |  |  |  |  |  |
| CCC[C@@]1(CCc2ccccc2)CC(O)=C([C@H](CC)c2cccc(NS(=O)(=O)c3ccc(C(F)(F)F)cn3)c2)C(=O)O1 [Tipranavir, tipranavir] | > 90% | 4.12 | 32.7 µM | dose-dependent inhibition | 5.58 | 24.2 µM | reduced ZIKV titer | 4.45 | 30.3 µM | > 100 µM | 34 µM | 89.2 µM | 12.5 µM | 50 µM | 29.9 µM | even stronger compared to 7-deaza-2′-C-methyladenosine | 3.79 | 35.5 µM |  | reduction of ZIKV replication in the HBCA culture (ZIKV (Paraiba_01) [3]; 12.5 µM): approx. 10^3 fold; EC90 (HIV): 0.1 µM; antiviral effect against ZIKV (virus titer reduction) (ZIKV (Paraiba_01) [4]; 50 µM): approx. 10^3 fold |
| COc1c(-c2ccc3cc(NS(C)(=O)=O)ccc3c2)cc(-n2ccc(=O)[nH]c2=O)cc1C(C)(C)C [Dasabuvir, dasabuvir] | > 90% | 5.60 | 18.8 µM | dose-dependent inhibition | 6.48 | 15.7 µM | reduced ZIKV titer | 6.54 | 15.5 µM | 102 µM | 26 µM | 21.3 µM | 12.5 µM | 6.25 µM | 16.1 µM | even stronger compared to 7-deaza-2′-C-methyladenosine | 6.67 | 15.2 µM | 6.29 | EC50 (WNV (Eg101)): 18.1 µM; EC50 (HCV genotype 1b replicon): 0.0018 µM; effect on ZIKV replication in the cell culture (ZIKV (Paraiba_01) [3]; 12.5 µM): completely suppressed ZIKV replication; virus titer reduction in comparison with mock-treated control cells (ZIKV (Paraiba_01) [4]; highest concentration of the drug): approximately 1 log10 pfu/mL; EC50 (HCV genotype 1a replicon): 0.0077 µM |
| O=C1Nc2ccc(Cl)cc2[C@@](C#CC2CC2)(C(F)(F)F)O1 [Efavirenz, efavirenz] | > 90% | 3.35 | 21.9 µM | dose-dependent inhibition | 4.50 | 16.3 µM | reduced ZIKV titer | 2.41 | 30.4 µM | 73.6 µM | 16.7 µM | 31.9 µM | 3.125 µM | 12.5 µM | 25.8 µM | antiviral effect | 4.63 | 15.9 µM | 2.85 | antiviral effect against ZIKV (ZIKV (Paraiba_01) [3]; any concentration tested): No antiviral effect; antiviral effect against ZIKV (ZIKV (Paraiba_01) [4]; any concentration tested): No antiviral effect |
